# Test results from patent publication US11214803B2, “Modulators of YAP1 expression” (Ionis Pharmaceuticals, Inc., priority 2019, dated 2022).
# Strand notation (5' to 3'): a small letter for the sugar, then the base; units joined by * are phosphorothioate-linked, units joined directly phosphodiester-linked; [ ] holds rarer units or linkages, { } end groups; capitals alone tell only the bases. k = constrained ethyl (cEt); [5mC] = 5-methylcytosine; d = 2'-deoxy (DNA)
# System: Yap1 mRNA
# Test: Antisense inhibition of human Yap1 in A-431 cells by cEt gapmers, single dose (Example 1, RTS4814)
# Type: cell-based
# Details: A-431 cells, 5,000 cells per well, free uptake, 2,000 nM modified oligonucleotide, approx. 48 hours, RTS4814, normalized to RIBOGREEN; Table 3
# Experimental: Modified oligonucleotides were designed to target a Yap1 nucleic acid and were tested for their effect on Yap1 mRNA level in vitro. The modified oligonucleotides were tested in a series of experiments that had similar culture conditions. Cultured A-431 cells at a density of 5,000 cells per well were treated using free uptake with 2,000 nM of modified oligonucleotide. After a treatment period of approximately 48 hours, RNA was isolated from the cells and Yap1 mRNA levels were measured by quantitative real-time RTPCR. Human primer probe set RTS4814 (forward sequence […], designated herein as SEQ ID NO.: 11; reverse sequence […], designated herein as SEQ ID NO.: 12; probe sequence […], designated herein as SEQ ID NO.: 13) was used to measure mRNA levels. Yap1 mRNA levels were normalized to total RNA content, as measured by RIBOGREEN®. Results are presented in the tables below as percent control of the amount of Yap1 mRNA relative to untreated control cells (% UTC). The modified oligonucleotides with percent control values marked with an asterisk (*) target the amplicon region of the primer probe set. Additional assays may be used to measure the potency and efficacy of the modified oligonucleotides targeting the amplicon region.
# The newly designed modified oligonucleotides in the Tables below were designed as 3-10-3 cEt gapmers. The gapmers are 16 nucleosides in length, wherein the central gap segment comprises of ten 2′-deoxynucleosides and is flanked by wing segments on the 5′ direction and the 3′ direction comprising three nucleosides each. Each nucleoside in the 5′ wing segment and each nucleoside in the 3′ wing segment has a cEt sugar modification. The internucleoside linkages throughout each gapmer are phosphorothioate (P═S) linkages. All cytosine residues throughout each gapmer are 5-methylcytosines.
# “Start site” indicates the 5′-most nucleoside to which the gapmer is targeted in the human gene sequence. “Stop site” indicates the 3′-most nucleoside to which the gapmer is targeted human gene sequence. […] Activity of the modified oligonucleotide may be defined in a different experiment.
row,Substance,YAP1 (% UTC)
1,715555 (kG*kT*kT*dA*dT*dT*d[5mC]*dA*dG*d[5mC]*dA*dG*d[5mC]*kT*kT*kA; antisense) [Compound 715555],21 % UTC
2,715627 (antisense k[5mC]*kT*kA*d[5mC]*d[5mC]*dT*dG*dA*d[5mC]*dA*dT*dT*dT*kT*kG*kG) [Compound 715627],88 % UTC
3,715444 (antisense kT*k[5mC]*k[5mC]*d[5mC]*dT*dG*dT*dG*dG*dG*d[5mC]*dT*d[5mC]*kT*kG*kG) [Compound 715444],84 % UTC
4,715561 (k[5mC]*kA*k[5mC]*dA*dA*d[5mC]*dT*d[5mC]*dA*dG*dA*d[5mC]*dA*kG*kG*kG; antisense) [Compound 715561],69 % UTC
5,715411 (kG*k[5mC]*kA*dT*d[5mC]*dA*dG*dT*dA*d[5mC]*dT*dG*dG*k[5mC]*k[5mC]*kT; antisense) [Compound 715411],94 % UTC
6,715450 (antisense kT*kT*kG*dT*dT*d[5mC]*dT*d[5mC]*dA*dA*dT*dT*d[5mC]*k[5mC]*kT*kG) [Compound 715450],53 % UTC
7,715618 (antisense kA*kT*kA*dA*dG*dA*d[5mC]*dG*dG*dA*dT*dA*dA*kA*kA*kA) [Compound 715618],101 % UTC
8,715507 (antisense kT*kG*kG*dG*dA*dT*dT*dG*dA*dT*dA*dT*dT*k[5mC]*k[5mC]*kG) [Compound 715507],95 % UTC
9,715609 (antisense kT*kG*kT*dG*dT*dA*dG*dG*d[5mC]*dT*dG*dA*d[5mC]*kT*kT*kA) [Compound 715609],56 % UTC
10,715402 (kA*kG*kG*dA*dG*dT*d[5mC]*dG*dG*dG*d[5mC]*dA*dG*k[5mC]*kT*kT; antisense) [Compound 715402],59 % UTC
11,715594 (antisense kA*kT*kA*dT*dT*dT*d[5mC]*dT*dT*dT*dG*dG*d[5mC]*kA*kG*kA) [Compound 715594],39 % UTC
12,715591 (k[5mC]*kT*kT*dT*dG*dG*d[5mC]*dA*dG*dA*dG*dA*dT*kA*kA*kA; antisense) [Compound 715591],41 % UTC
13,715465 (antisense kG*kT*k[5mC]*d[5mC]*dA*d[5mC]*dA*dT*dT*dT*dG*dT*d[5mC]*k[5mC]*k[5mC]*kA) [Compound 715465],91 % UTC
14,715504 (antisense kT*kG*kG*dT*dT*dT*dA*dT*dT*dG*dT*dA*dA*kA*kA*kG) [Compound 715504],70 % UTC
15,715570 (kG*k[5mC]*k[5mC]*dA*dA*dA*dG*dG*dT*dA*dG*dG*dA*kT*kA*kA; antisense) [Compound 715570],79 % UTC
16,715420 (kG*kA*kT*dT*dT*dA*dA*dG*dA*dA*dG*dT*dA*kT*k[5mC]*kT; antisense) [Compound 715420],107 % UTC
17,715471 (antisense kT*kA*kT*d[5mC]*dT*dA*dG*d[5mC]*dT*dT*dG*dG*dT*kG*kG*k[5mC]) [Compound 715471],36 % UTC
18,715558 (k[5mC]*kA*kG*dG*dA*dA*dG*dT*dT*dA*dT*dT*d[5mC]*kA*kG*k[5mC]; antisense) [Compound 715558],37 % UTC

# Same assay, conditions: Table 1; A-431 cells, free uptake, 2,000 nM, approximately 48 hours, RTS4814; Yap1 mRNA relative to untreated control cells
row,Substance,YAP1 (% UTC)
1,715586 (kA*kA*kA*dA*dG*dG*dT*d[5mC]*dT*dG*dG*dA*dA*k[5mC]*kA*kG; antisense) [Compound 715586],53 % UTC
2,715493 (antisense kG*kT*kG*d[5mC]*dT*dA*dG*d[5mC]*dT*dG*dG*dT*dG*k[5mC]*k[5mC]*kA) [Compound 715493],62 % UTC
3,715553 (kA*kG*kA*dA*dA*dT*dA*dG*dG*dA*dA*dG*dT*kT*kG*kT; antisense) [Compound 715553],90 % UTC
4,715523 (kA*kT*k[5mC]*dA*dG*dT*dA*d[5mC]*dT*dG*dG*d[5mC]*d[5mC]*kT*kA*kT; antisense) [Compound 715523],32 % UTC
5,715490 (antisense k[5mC]*k[5mC]*kA*dA*d[5mC]*dT*dA*dT*dT*dA*d[5mC]*dT*dT*k[5mC]*kA*kT) [Compound 715490],38 % UTC
6,715550 (kA*kG*kG*dA*dA*dG*dT*dT*dG*dT*dT*dG*dA*k[5mC]*k[5mC]*kA; antisense) [Compound 715550],70 % UTC
7,715457 (antisense kA*kG*kA*dG*dT*dG*dA*dT*dA*dG*dG*dT*dG*k[5mC]*k[5mC]*kA) [Compound 715457],47 % UTC
8,715454 (antisense kA*kT*kA*dG*dG*dT*dG*d[5mC]*d[5mC]*dA*d[5mC]*dT*dG*kT*kT*kA) [Compound 715454],78 % UTC
9,715418 (kA*kG*kT*dG*dT*d[5mC]*d[5mC]*d[5mC]*dA*dG*dG*dA*dG*kA*kA*kA; antisense) [Compound 715418],126 % UTC
10,715463 (antisense k[5mC]*kT*kG*dT*dA*dG*d[5mC]*dT*dG*d[5mC]*dT*d[5mC]*dA*kT*kG*k[5mC]) [Compound 715463],73 % UTC
11,715547 (kG*kT*kT*dG*dA*d[5mC]*d[5mC]*dA*dA*d[5mC]*dT*dA*d[5mC]*kT*kT*kG; antisense) [Compound 715547],98 % UTC
12,715601 (antisense kA*kG*kA*dA*dT*dT*d[5mC]*d[5mC]*d[5mC]*dA*dA*dG*d[5mC]*kT*kA*k[5mC]) [Compound 715601],106 % UTC

# Same assay, conditions: Table 2; A-431 cells, free uptake, 2,000 nM, approximately 48 hours, RTS4814; Yap1 mRNA relative to untreated control cells
row,Substance,YAP1 (% UTC)
1,715530 (kA*kA*k[5mC]*d[5mC]*dT*dG*dG*dT*dT*dT*dG*dT*dT*kT*k[5mC]*k[5mC]; antisense) [Compound 715530],61 % UTC
2,715575 (k[5mC]*k[5mC]*kT*dT*dT*dA*d[5mC]*d[5mC]*dA*dA*dA*dA*d[5mC]*kG*kA*kG; antisense) [Compound 715575],134 % UTC
3,715449 (antisense kT*kT*k[5mC]*dT*d[5mC]*dA*dA*dT*dT*d[5mC]*d[5mC]*dT*dG*kA*kG*kA) [Compound 715449],124 % UTC
4,715578 (kT*kG*kG*d[5mC]*dA*dT*dT*d[5mC]*dA*d[5mC]*dA*dG*dA*kG*kT*kT; antisense) [Compound 715578],50 % UTC
5,715611 (antisense k[5mC]*kT*kT*dT*dA*dA*dG*d[5mC]*d[5mC]*dA*d[5mC]*dA*dT*kG*kG*kT) [Compound 715611],106 % UTC
6,715458 (antisense k[5mC]*kG*kA*dG*dA*dG*dT*dG*dA*dT*dA*dG*dG*kT*kG*k[5mC]) [Compound 715458],58 % UTC
7,715440 (antisense k[5mC]*kT*kG*dG*dT*dT*d[5mC]*dA*dT*dG*dG*d[5mC]*dA*kA*kA*kA) [Compound 715440],85 % UTC
8,715497 (antisense kA*kA*k[5mC]*d[5mC]*d[5mC]*dT*dT*dG*dA*dA*dA*dA*dT*kA*kA*kG) [Compound 715497],155 % UTC
9,715470 (antisense kT*k[5mC]*kT*dA*dG*d[5mC]*dT*dT*dG*dG*dT*dG*dG*k[5mC]*kA*kG) [Compound 715470],83 % UTC
10,715413 (k[5mC]*kA*kT*dG*d[5mC]*dT*dG*dT*dG*dG*dA*dG*dT*k[5mC]*kA*kG; antisense) [Compound 715413],96 % UTC
11,715629 (antisense kG*kA*kG*d[5mC]*d[5mC]*dT*dA*d[5mC]*d[5mC]*dT*dG*dA*d[5mC]*kA*kT*kT) [Compound 715629],112 % UTC
12,715587 (kT*kG*kA*dA*dA*dA*dG*dG*dT*d[5mC]*dT*dG*dG*kA*kA*k[5mC]; antisense) [Compound 715587],79 % UTC
13,715560 (k[5mC]*k[5mC]*k[5mC]*dT*dT*dT*dA*d[5mC]*dA*dA*dA*dA*dA*kT*kA*kG; antisense) [Compound 715560],98 % UTC
14,715509 (antisense kT*kG*k[5mC]*dT*dG*dT*dG*d[5mC]*dT*dG*dG*dG*dA*kT*kT*kG) [Compound 715509],42 % UTC
15,715401 (kG*kG*kT*d[5mC]*dT*d[5mC]*d[5mC]*dG*dA*dG*dT*d[5mC]*d[5mC]*k[5mC]*k[5mC]*kG; antisense) [Compound 715401],84 % UTC
16,715557 (kG*kG*kA*dA*dG*dT*dT*dA*dT*dT*d[5mC]*dA*dG*k[5mC]*kA*kG; antisense) [Compound 715557],46 % UTC
17,715554 (kT*kA*kT*dT*d[5mC]*dA*dG*d[5mC]*dA*dG*d[5mC]*dT*dT*kA*kT*kA; antisense) [Compound 715554],93 % UTC
18,715545 (kA*k[5mC]*k[5mC]*dA*dA*d[5mC]*dT*dA*d[5mC]*dT*dT*dG*dA*kA*kG*kA; antisense) [Compound 715545],87 % UTC
